How the values were obtained:
[1] = molecular target: Ephrin type-A receptor 3 (Homo sapiens) (UniProt P29320); conditions: Compound concentration 1000.0 nM
[2] = molecular target: Tyrosine-protein kinase Blk (Homo sapiens) (UniProt P51451); conditions: Compound concentration 1000.0 nM
[3] = molecular target: Cyclin-dependent kinase 3 (Homo sapiens) (UniProt Q00526); conditions: Compound concentration 1000.0 nM
[4] = molecular target: Phosphatidylinositol 4-phosphate 5-kinase type-1 alpha (Homo sapiens) (UniProt Q99755); conditions: Compound concentration 1000.0 nM
[5] = molecular target: Proto-oncogene tyrosine-protein kinase Src (Homo sapiens) (UniProt P12931); conditions: Compound concentration 1000.0 nM
[6] = molecular target: T1, Serine/threonine-protein kinase TAO3 (Homo sapiens) (UniProt Q9H2K8); conditions: Compound concentration 1000.0 nM
T1 sequence (whole entry): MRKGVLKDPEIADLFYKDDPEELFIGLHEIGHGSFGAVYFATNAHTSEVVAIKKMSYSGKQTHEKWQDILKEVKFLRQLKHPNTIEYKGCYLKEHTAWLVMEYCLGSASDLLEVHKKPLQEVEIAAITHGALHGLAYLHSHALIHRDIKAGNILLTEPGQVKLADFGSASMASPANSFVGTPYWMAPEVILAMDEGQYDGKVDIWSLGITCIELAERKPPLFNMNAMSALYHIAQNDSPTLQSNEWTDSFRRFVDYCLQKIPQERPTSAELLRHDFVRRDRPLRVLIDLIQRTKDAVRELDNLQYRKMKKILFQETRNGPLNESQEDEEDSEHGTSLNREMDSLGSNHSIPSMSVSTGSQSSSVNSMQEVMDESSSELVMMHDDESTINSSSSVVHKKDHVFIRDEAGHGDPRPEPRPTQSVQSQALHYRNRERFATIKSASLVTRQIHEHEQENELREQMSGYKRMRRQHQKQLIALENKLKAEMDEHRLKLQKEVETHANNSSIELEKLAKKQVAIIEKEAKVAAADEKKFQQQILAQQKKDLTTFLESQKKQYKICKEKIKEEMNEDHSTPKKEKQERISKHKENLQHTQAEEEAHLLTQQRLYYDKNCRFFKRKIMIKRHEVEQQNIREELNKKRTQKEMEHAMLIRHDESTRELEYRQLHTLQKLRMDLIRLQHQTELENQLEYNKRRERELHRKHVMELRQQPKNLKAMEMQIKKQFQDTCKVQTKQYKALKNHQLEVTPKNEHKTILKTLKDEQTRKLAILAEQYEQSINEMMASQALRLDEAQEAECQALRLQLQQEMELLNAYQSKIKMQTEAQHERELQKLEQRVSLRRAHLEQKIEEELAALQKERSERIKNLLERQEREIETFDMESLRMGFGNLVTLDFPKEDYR

[7] = system: Tyrosine-protein kinase ABL1 (Homo sapiens), P00519 [F317I]; conditions: Compound concentration 1000.0 nM
[8] = molecular target: T2, Serine/threonine-protein kinase haspin (Homo sapiens) (UniProt Q8TF76); conditions: Compound concentration 1000.0 nM
T2 sequence (whole entry): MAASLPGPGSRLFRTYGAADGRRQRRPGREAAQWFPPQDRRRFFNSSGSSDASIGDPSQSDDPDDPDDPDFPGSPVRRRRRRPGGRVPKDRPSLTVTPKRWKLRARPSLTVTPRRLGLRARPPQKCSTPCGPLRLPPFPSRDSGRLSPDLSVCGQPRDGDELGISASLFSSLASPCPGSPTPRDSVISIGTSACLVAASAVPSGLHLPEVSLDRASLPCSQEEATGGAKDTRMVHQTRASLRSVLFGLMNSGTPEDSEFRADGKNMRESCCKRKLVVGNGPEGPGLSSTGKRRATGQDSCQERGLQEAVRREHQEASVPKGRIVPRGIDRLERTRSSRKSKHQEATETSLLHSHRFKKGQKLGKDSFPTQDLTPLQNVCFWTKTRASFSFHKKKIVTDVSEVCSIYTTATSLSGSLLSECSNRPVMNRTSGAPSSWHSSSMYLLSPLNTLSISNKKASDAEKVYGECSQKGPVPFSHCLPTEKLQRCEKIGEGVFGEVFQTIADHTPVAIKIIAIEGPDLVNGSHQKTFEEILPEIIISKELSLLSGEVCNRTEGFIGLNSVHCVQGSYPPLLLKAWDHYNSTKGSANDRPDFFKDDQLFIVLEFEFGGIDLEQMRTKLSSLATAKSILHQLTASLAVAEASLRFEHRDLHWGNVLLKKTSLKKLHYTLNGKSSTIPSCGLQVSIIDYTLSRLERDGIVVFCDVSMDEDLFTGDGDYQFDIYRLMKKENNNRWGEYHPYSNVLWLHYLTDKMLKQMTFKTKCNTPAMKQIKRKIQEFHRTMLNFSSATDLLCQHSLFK

[9] = system: Mast/stem cell growth factor receptor Kit (Homo sapiens), P10721 [V559D]; conditions: Compound concentration 1000.0 nM
[10] = molecular target: Receptor-interacting serine/threonine-protein kinase 1 (Homo sapiens) (UniProt Q13546); conditions: Compound concentration 1000.0 nM
[11] = molecular target: Muscarinic acetylcholine receptor M5 (Homo sapiens) (UniProt P08912); conditions: Compound concentration 10.0 uM
[12] = molecular target: Ephrin type-A receptor 2 (Homo sapiens) (UniProt P29317); conditions: Compound concentration 1000.0 nM
[13] = molecular target: Serine/threonine-protein kinase SIK3 (Homo sapiens) (UniProt Q9Y2K2); conditions: Compound concentration 1000.0 nM
[14] = molecular target: Glycogen synthase kinase-3 beta (Homo sapiens) (UniProt P49841); conditions: Compound concentration 1000.0 nM
[15] = molecular target: Ribosomal protein S6 kinase alpha-5 (Homo sapiens) (UniProt O75582); conditions: Compound concentration 1000.0 nM
[16] = molecular target: Calcium/calmodulin-dependent protein kinase kinase 1 (Homo sapiens) (UniProt Q8N5S9); conditions: Compound concentration 1000.0 nM
[17] = molecular target: Histamine H1 receptor (Homo sapiens) (UniProt P35367); conditions: Compound concentration 10.0 uM
[18] = molecular target: Casein kinase II subunit alpha' (Homo sapiens) (UniProt P19784); conditions: Compound concentration 1000.0 nM
[19] = molecular target: Ribosomal protein S6 kinase alpha-2 (Homo sapiens) (UniProt Q15349); conditions: Compound concentration 1000.0 nM
[20] = molecular target: Serine/threonine-protein kinase 35 (Homo sapiens) (UniProt Q8TDR2); conditions: Compound concentration 1000.0 nM
[21] = system: Hepatocyte growth factor receptor (Homo sapiens), P08581 [M1250T]; conditions: Compound concentration 1000.0 nM
[22] = molecular target: Receptor tyrosine-protein kinase erbB-2 (Homo sapiens) (UniProt P04626); conditions: Compound concentration 1000.0 nM
Chain of Receptor tyrosine-protein kinase erbB-2 (Homo sapiens) (P04626 whole entry): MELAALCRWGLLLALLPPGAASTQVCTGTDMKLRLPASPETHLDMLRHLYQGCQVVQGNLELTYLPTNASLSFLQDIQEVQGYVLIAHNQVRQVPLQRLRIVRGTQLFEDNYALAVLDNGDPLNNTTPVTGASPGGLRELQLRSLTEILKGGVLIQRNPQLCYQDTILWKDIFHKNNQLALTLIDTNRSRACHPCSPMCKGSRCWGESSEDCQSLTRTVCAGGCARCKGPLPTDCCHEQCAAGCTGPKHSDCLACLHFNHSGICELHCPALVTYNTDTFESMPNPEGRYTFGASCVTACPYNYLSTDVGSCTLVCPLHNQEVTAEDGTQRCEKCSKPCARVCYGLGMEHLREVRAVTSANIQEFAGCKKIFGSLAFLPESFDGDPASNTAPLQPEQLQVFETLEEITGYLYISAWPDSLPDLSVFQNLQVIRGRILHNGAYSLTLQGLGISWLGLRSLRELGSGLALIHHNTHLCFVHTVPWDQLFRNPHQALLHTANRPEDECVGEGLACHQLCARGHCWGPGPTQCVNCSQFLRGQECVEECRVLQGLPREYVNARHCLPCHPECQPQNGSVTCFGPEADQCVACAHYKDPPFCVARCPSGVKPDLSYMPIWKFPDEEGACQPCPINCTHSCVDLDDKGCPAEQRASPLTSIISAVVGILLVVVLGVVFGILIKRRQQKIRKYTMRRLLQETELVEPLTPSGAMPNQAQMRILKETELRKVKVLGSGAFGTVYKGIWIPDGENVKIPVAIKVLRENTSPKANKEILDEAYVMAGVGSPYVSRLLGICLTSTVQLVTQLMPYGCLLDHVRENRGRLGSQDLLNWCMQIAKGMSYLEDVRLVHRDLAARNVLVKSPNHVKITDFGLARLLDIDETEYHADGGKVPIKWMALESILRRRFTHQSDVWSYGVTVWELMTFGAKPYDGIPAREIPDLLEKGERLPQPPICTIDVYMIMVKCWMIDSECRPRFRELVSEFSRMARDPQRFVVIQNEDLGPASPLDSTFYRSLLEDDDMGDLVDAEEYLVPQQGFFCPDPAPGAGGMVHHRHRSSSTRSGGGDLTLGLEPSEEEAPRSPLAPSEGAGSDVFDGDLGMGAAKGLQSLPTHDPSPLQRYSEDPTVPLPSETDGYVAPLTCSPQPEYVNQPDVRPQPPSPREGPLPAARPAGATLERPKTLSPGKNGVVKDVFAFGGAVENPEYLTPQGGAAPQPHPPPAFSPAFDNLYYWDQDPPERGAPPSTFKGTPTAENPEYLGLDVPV

Chain of Phosphatidylinositol 4-phosphate 5-kinase type-1 alpha (Homo sapiens) (Q99755 whole entry): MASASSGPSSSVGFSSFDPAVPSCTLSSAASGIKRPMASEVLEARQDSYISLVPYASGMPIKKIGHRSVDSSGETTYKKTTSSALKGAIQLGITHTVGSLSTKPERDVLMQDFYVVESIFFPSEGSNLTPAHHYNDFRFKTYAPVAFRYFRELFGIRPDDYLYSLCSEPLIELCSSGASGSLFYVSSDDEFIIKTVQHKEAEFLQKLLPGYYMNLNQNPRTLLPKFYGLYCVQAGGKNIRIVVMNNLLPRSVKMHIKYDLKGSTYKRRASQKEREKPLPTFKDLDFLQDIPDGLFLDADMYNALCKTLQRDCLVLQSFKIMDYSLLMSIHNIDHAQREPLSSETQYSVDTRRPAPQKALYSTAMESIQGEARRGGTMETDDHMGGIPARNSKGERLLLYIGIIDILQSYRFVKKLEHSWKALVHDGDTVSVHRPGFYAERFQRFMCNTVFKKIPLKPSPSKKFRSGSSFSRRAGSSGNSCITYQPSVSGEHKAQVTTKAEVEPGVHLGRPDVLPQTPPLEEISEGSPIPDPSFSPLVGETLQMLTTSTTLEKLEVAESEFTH
Chain of Histamine H1 receptor (Homo sapiens) (P35367 whole entry): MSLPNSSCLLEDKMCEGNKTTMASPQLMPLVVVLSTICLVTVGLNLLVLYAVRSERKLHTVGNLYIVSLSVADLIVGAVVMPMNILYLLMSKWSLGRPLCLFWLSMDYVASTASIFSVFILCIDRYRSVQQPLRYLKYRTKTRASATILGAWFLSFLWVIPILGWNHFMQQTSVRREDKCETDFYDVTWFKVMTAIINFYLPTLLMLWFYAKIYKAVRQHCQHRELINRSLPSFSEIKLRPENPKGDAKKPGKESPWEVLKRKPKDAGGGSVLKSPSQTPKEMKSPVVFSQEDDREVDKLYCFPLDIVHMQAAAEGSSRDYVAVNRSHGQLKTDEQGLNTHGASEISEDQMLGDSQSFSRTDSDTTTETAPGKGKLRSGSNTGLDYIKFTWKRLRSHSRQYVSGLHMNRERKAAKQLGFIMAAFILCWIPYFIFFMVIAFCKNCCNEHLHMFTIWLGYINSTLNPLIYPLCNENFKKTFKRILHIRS
Chain of Mast/stem cell growth factor receptor Kit (Homo sapiens), P10721 [V559D] (P10721 whole entry V559D): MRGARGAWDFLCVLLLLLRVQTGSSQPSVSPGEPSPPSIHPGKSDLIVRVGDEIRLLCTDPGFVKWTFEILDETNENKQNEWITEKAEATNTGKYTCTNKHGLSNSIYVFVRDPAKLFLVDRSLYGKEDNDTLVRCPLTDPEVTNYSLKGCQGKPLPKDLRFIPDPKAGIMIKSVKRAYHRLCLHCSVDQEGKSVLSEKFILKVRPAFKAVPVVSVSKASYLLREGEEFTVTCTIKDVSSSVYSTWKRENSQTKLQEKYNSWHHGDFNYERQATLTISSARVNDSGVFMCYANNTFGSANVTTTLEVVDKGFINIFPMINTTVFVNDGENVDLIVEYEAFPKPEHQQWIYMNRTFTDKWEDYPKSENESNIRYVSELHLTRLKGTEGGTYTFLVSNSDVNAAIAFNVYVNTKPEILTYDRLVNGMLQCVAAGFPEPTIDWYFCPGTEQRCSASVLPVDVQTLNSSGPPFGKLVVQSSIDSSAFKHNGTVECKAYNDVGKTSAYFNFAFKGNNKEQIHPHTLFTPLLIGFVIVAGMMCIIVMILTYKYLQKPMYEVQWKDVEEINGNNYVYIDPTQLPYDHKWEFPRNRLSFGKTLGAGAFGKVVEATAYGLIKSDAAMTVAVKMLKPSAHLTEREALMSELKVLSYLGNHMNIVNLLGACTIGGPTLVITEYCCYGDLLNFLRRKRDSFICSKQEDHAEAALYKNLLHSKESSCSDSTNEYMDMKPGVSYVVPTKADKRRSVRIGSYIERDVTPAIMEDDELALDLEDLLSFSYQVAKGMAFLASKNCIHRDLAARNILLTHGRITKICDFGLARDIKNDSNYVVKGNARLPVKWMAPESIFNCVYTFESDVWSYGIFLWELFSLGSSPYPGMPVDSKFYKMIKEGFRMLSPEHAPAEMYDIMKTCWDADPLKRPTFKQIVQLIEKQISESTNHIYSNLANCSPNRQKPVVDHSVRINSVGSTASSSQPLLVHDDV
Chain of Glycogen synthase kinase-3 beta (Homo sapiens) (P49841 whole entry, looked up): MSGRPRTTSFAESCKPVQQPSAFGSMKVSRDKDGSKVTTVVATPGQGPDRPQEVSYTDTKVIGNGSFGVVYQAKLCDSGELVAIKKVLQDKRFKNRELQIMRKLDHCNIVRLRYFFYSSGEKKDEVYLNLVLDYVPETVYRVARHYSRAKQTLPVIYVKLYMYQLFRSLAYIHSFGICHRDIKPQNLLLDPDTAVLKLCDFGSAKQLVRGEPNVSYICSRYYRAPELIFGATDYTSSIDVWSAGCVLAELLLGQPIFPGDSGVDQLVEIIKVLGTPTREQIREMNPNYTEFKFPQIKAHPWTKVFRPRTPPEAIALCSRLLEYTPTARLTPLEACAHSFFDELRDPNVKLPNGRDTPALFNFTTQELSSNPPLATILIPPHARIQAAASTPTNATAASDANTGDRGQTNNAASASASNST
Chain of Ribosomal protein S6 kinase alpha-2 (Homo sapiens) (Q15349 whole entry): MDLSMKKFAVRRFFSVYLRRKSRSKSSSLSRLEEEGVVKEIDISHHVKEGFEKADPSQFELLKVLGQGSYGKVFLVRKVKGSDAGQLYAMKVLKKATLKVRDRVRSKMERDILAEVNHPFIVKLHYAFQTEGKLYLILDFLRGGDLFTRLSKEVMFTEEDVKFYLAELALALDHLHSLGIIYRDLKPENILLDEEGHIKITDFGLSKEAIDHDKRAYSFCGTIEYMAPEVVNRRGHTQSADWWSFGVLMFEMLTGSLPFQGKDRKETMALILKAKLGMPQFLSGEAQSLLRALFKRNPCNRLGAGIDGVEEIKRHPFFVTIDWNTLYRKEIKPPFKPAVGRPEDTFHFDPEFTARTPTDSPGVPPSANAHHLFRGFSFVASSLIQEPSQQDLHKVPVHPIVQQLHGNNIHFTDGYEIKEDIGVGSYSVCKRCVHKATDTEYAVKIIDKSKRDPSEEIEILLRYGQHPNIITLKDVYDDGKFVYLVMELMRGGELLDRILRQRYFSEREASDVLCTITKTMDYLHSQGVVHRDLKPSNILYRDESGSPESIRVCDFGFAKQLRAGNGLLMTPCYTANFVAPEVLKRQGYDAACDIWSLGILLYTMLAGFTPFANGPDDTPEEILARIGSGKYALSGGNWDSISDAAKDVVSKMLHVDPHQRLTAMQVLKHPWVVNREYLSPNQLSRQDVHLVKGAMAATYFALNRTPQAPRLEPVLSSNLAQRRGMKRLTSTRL
Chain of Muscarinic acetylcholine receptor M5 (Homo sapiens) (P08912 whole entry): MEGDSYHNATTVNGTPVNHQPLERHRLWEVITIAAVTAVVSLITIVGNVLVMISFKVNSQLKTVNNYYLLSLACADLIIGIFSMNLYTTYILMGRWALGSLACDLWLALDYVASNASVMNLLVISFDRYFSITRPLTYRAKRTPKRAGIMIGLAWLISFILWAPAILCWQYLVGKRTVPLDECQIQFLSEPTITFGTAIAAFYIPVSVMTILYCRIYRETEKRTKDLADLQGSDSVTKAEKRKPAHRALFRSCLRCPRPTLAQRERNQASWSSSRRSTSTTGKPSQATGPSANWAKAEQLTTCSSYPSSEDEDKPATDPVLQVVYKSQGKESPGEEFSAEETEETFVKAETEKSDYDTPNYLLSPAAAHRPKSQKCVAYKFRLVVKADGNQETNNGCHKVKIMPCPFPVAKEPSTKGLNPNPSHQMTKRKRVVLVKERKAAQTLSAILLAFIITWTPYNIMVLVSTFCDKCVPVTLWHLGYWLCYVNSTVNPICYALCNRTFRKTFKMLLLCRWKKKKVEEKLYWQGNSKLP

CN(C)C(=O)Cn1cc(-c2nc(C3(c4ccc(-c5cnc(N)nc5)cc4)CC3)no2)cn1 [BI 0153]
inactive: residual activity [1] 89% | residual activity [2] 83% | residual activity [3] 100% | residual activity [4] 95% | residual activity [5] 84% | residual activity [6] 67% | residual activity [7] 90% | residual activity [8] 74% | residual activity [9] 100% | residual activity [10] 89% | inhibition [11] -1.63% | residual activity [12] 89% | residual activity [13] 100% | residual activity [14] 81% | residual activity [15] 98% | residual activity [16] 100% | inhibition [17] 8.78% | residual activity [18] 100% | residual activity [19] 100% | residual activity [20] 94% | residual activity [21] 100% | residual activity [22] 80%

CN(C)C(=O)Cn1cc(-c2nc([C@@](C)(c3ccc(-c4cnc(N)nc4)cc3)C3CC3)no2)cn1 [BI 665915]
inactive: residual activity [1] 100% | residual activity [2] 98% | residual activity [3] 100% | residual activity [4] 90% | residual activity [5] 90% | residual activity [6] 89% | residual activity [7] 100% | residual activity [8] 100% | residual activity [9] 91% | residual activity [10] 82% | inhibition [11] 5.21% | residual activity [12] 100% | residual activity [13] 70% | residual activity [14] 100% | residual activity [15] 93% | residual activity [16] 100% | inhibition [17] 7.66% | residual activity [18] 90% | residual activity [19] 100% | residual activity [20] 88% | residual activity [21] 93% | residual activity [22] 100%

— ChEMBL document CHEMBL4507276 (2021)
